ChEMBL document CHEMBL1121828, “Quantitative structure-selectivity relationships. Comparison of the inhibition of Escherichia coli and bovine liver dihydrofolate reductase by 5-(substituted-benzyl)-2,4-diaminopyrimidines” (J Med Chem, 1981)

What was measured:
[1] = molecular target: T1, Dihydrofolate reductase (Escherichia coli) (UniProt P0ABQ4)
T1 sequence (whole entry): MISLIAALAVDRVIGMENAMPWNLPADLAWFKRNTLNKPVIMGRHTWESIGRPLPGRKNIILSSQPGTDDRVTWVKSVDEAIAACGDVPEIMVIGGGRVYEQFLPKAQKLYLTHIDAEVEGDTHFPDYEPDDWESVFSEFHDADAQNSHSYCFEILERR
Description: Compound is evaluated for the inhibition of dihydrofolate reductase from Escherichia coli

[2] = molecular target: T2, Dihydrofolate reductase (Bos taurus) (UniProt P00376)
T2 sequence (whole entry): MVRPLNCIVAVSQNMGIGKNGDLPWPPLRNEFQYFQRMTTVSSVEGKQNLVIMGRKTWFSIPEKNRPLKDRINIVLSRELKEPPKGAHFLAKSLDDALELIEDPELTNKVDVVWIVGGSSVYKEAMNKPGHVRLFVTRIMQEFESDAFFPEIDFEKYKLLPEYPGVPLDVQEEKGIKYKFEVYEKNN
Description: Inhibition of dihydrofolate reductase from bovine liver

Row | SMILES | Log 1/Ki app [1] | Log 1/Ki app [2]
1 | CS(=O)(=O)Oc1cccc(Cc2cnc(N)nc2N)c1 | 6.92 | 5.58
2 | Nc1ncc(Cc2cccc(O)c2)c(N)n1 | – | 4.88
3 | Nc1ncc(Cc2cccc(CO)c2)c(N)n1 | – | 5.2
4 | COCCOc1c(OC)cc(Cc2cnc(N)nc2N)cc1OC | – | 4.88
5 | Nc1ncc(Cc2cccc(C(F)(F)F)c2)c(N)n1 | – | 5.53
6 | COc1ccc(Cc2cnc(N)nc2N)cc1OC | – | 5.15
7 | CC(=O)Nc1ccc(Cc2cnc(N)nc2N)cc1[N+](=O)[O-] | 6.97 | 5.16

More lines, now with the values ahead:

Row | Log 1/Ki app [1] | Log 1/Ki app [2] | SMILES
8 | – | 5.74 | CCCCOc1ccc(Cc2cnc(N)nc2N)cc1
9 | – | 5.49 | COCc1cccc(Cc2cnc(N)nc2N)c1
10 | – | 5.86 | CCCCOCc1cccc(Cc2cnc(N)nc2N)c1
11 | – | 4.8 | Cc1ccc(Cc2cnc(N)nc2N)cc1
12 | – | 6.15 | Nc1ncc(Cc2cccc(I)c2)c(N)n1
13 | 6.57 | 5.42 | Nc1ncc(Cc2ccc(OC(F)(F)F)cc2)c(N)n1
14 | – | 4.57 | Nc1ccc(Cc2cnc(N)nc2N)cc1
